Results published in EP1311486B1, “USES OF THALIPORPHINE OR ITS DERIVATIVES IN TREATMENT OF CARDIAC DISEASES AND PREPARATION OF SAME” (Lotus Pharmaceutical Co., Ltd., priority 2000, dated 2002).
Marks after values point to notes of the source that are not given here.

Columns and labels:
[1] = test system: Human low density lipoprotein (LDL); assay: Copper-induced lipid peroxidation of LDL (TBARS formation); type: biochemical; details: LDL 100µg/ml, 37°C, CuSO4 12 hours
Experimental: Human low density lipoprotein (LDL, 100µg/ml) was preincubated with DMSO (0.1%, basal and control) or various concentrations of THP at 37°C for 10 minutes, and then CuSO4 was added, except for basal, and incubated for another 12 hours to determine the impact of THP on lipid peroxidation.
The impact of THP on lipid peroxidation is further assessed by evaluating its effect on the formation of TBARS (thiobarbituric acid-reactive substance) from LDL. Exposure of LDL to CuSO4 within 12 hours results in the peroxidation of LDL, as indicated by the increased content of TBARS (FIG. 3).

atria or ventricles = assay: Action potential duration in atria or ventricles; details: 3-10µM, data not shown
Experimental: Moreover, 3-10µM THP prolongs the action potential duration in the atria or ventricles of both rats and guinea pigs (data not shown).

[2] = Superoxide anion scavenging, xanthine/xanthine oxidase system; type: biochemical
plasma LDH = assay: Plasma LDH release at the end of ischemia or ischemia-reperfusion; type: in vivo, rats; details: for LDH (U/L) release, Ischemic / LDH (U/L) release, Reperfused: Operated
Experimental: (§1) Myocardial ischemia was performed by a temporary tightening of the silk ligature around the left main coronary artery. Reperfusion was achieved by releasing the tension applied to the ligature (operated groups). Sham operated animals underwent all surgical procedures, apart from the fact that the silk, passing around the left coronary artery, was not tied (sham groups). Animals were infused with a bolus of THP (3.5x10^-7, 3.5x10^-6, 3.5x10^-5 g/kg), L-NAME (N^∞-nitro-L-arginine methyl ester; 1x10^-3 g/kg) or vehicle (dimethyl sulfoxide/ NaCl 0.9%, 1:10^3; v/v) from a jugular vein 15 minutes before coronary occlusion. The coronary artery was occluded for 30 minutes or 5 minutes followed by 30 minutes reperfusion and with the animals then divided randomly in the following groups: (1) sham + vehicle; (2) sham + THP (3.5x10^-5g/kg); (3) operated + vehicle; (4) operated + THP (3.5x10^-7 g/kg); (5) operated + THP (3.5x10^-6 g/kg); (6) operated + THP (3.5x10^-5 g/kg); (7) operated + L-NAME (1x10^-3 g/kg) + THP (3.5x10^-5 g/kg). Before and during the ischemia or reperfusion period, heart rate (HR), blood pressure (BP) and ECG changes were recorded. Ventricular ectopic activity was evaluated according to the diagnostic criteria advocated in the Lambeth Convention. The incidence and duration of ventricular tachyarrhythmias, including ventricular tachycardia (VT) and ventricular fibrillation (VF), in surviving animals was determined. The Mann-Whitney rank-sum test was used to analyze the differences in the duration of VT and VF between vehicle and drug treated groups. The BP and HR changes between vehicle and drug treated rats in the arrhythmia study were analyzed by ANOVA (analysis of variance) followed by Bonferroni's test. The difference in the percentage incidence of VT, VF and mortality rate was analyzed with a Chi-square test. Table 2 Effect of THP on ischemia-induced arrhythmias in the in vivo anesthetized rat
(§2) Cellular damage was evaluated by measuring the plasma LDH. Arterial blood samples were drawn from the carotid catheter at the end of ischemia or ischemia-reperfusion, collected in heparinized tubes. The blood was kept at 4°C until it was centrifuged at 2000 xg for 15 minutes. The plasma was recovered and aliquots were used for determination of LDH activity with a commercial kit from Sigma. The deproteinized plasma samples were frozen and kept until analysis. NO was measured by the NO/ozone chemiluminescence technique described in Yanu F. et al., (1997) Clin. Chem. 43:657-662. The difference in plasma NO and LDH were analyzed statistically using unpaired Student's t-test. Table 5 Effects of THP on LDH (U/L) release
The biochemical indicator of cellular damage (LDH release) is determined in ischemia and the ischemia-reperfusion period. Low LDH activity can be seen in the control group (123.6±20.6 U/L) before occlusion. After the occlusion or occlusion-reperfusion, a large increase of the enzyme is found in the plasma of rats given operated-vehicle (500.5±81.4 U/L and 273.7±29.2 U/L, respectively). However, administration of THP attenuates LDH release with a dose-dependent manner during ischemia or ischemia-reperfusion (Table 5).

[3] = test system: rats subjected to myocardial ischemia; assay: Blood pressure and heart rate in rats subjected to 30 minutes coronary ligation; type: in vivo; details: intravenous, 3.5x10^-6 or 3.5x10^-5 g/kg
Experimental: as §1
No significant difference can be seen among vehicle and drug groups (3.5x10^-6 or 3.5x10^-5 g/kg, THP).

inward sodium current = details: Su MJ, et al., Eur. J. Pharmacol., 1994; cited from earlier work
plasma NO = assay: Plasma NO release (NO/ozone chemiluminescence) after ischemia or ischemia-reperfusion; type: in vivo, rats; details: for NO (µmol/L) release, Ischemic / NO (µmol/L) release, Reperfused: Operated
Experimental: as §1, §2
Nitric oxide (NO) release is measured by the presence of nitrite (NO2^-) and nitrate (NO3^-) in the plasma from an animal with 30 minutes ischemia or 5 minutes followed by 30 minutes reperfusion. In sham animals, NO is measured to be 9.6±2.3 and 7.6±0.9µmol/L without and with THP pretreatment, respectively. In the operated animals, THP exerts a dramatically increase of plasma NO; at a dose of 3.5x10^-6 g/kg, there are 2- and 3.5-fold increases compared to that of the untreated (vehicle) ischemic or ischemic-reperfused animals, respectively (Table 6).

[4] = test system: isolated guinea pig hearts; assay: Reperfusion-induced ventricular fibrillation in isolated guinea pig hearts subjected to global ischemia
Experimental: The isolated guinea pig hearts were ligated by global ischemia. Reperfusion was achieved by releasing the tension applyied to the ligature. Various concentrations of THP were then administered and the ventricular fibrillarion (VF) was recorded. Table 1 Effects of THP on reperfusion-induced ventricular fibrillation in isolated guinea pig hearts subjected to global ischemia
Similarly, 10µM THP can be effective in inhibiting the cardiac arrhythmia induced in the isolated guinea pig heart subjected to global ischemia followed by reperfusion (Table 1). The structure of coronary arteries between rat and guinea pig are not alike, THP, however, can be effective in inhibiting the arrhythmia induced in the isolated heart subjected to ischemia-reperfusion in both animals.

[5] = Sham-operated, THP 3.5x10^-5 g/kg

In the case of `COc1cc2c(cc1OC)-c1c(O)c(OC)cc3c1C(C2)N(C)CC3` (single isomer, unassigned; (+)) [THP, (+)-Thaliporphine], the IC50 [1] is reported as 15.7 µM, the action potential duration (atria or ventricles; atria or ventricles of guinea pigs) is reported as “prolongs” and the action potential duration (atria or ventricles; atria or ventricles of rats) is reported as “prolongs”. For the same compound, the EC50 [2] was 12.6 µM, the “LDH (U/L) release, Ischemic” value (plasma LDH; THP 3.5x10^-5 g/kg) was 132.2±33.2 U/L and the “LDH (U/L) release, Reperfused” value (plasma LDH; THP 3.5x10^-5 g/kg) was 143.8±11.7 U/L. For the same compound, the “LDH (U/L) release, Ischemic” value (plasma LDH; THP 3.5x10^-6 g/kg) was 171.7±56.9 U/L, the “LDH (U/L) release, Reperfused” value (plasma LDH; THP 3.5x10^-6 g/kg) was 219.6±31.0 U/L and the “LDH (U/L) release, Ischemic” value (plasma LDH; THP 3.5x10^-7 g/kg) was 349.5±55.0 U/L. The “LDH (U/L) release, Reperfused” value (plasma LDH; THP 3.5x10^-7 g/kg) was 202.2±30.4 U/L, the “LDH (U/L) release, Non-ischemic” value (plasma LDH; [5]) was 92.6±7.5 U/L and the diastolic blood pressure [3] was “does not modify”. For the same compound, the “heart rate (HR)” value [3] was “does not modify”, the systolic blood pressure [3] was “does not modify” and the inward sodium current (inward sodium current) was “inhibit”. For the same compound, the “increase of plasma NO compared to untreated (vehicle) ischemic animals” value (plasma NO; 3.5x10^-6 g/kg, ischemic) was 2 fold, the “increase of plasma NO compared to untreated (vehicle) ischemic-reperfused animals” value (plasma NO; 3.5x10^-6 g/kg, ischemic-reperfused) was 3.5 fold and the “NO (µmol/L) release, Ischemic” value (plasma NO; THP 3.5x10^-5 g/kg) was 19.1 ± 5.5 µmol/L. The “NO (µmol/L) release, Reperfused” value (plasma NO; THP 3.5x10^-5 g/kg) was 30.4 ± 1.9 µmol/L, the “NO (µmol/L) release, Ischemic” value (plasma NO; THP 3.5x10^-6 g/kg) was 19.4 ± 4.7 µmol/L and the “NO (µmol/L) release, Reperfused” value (plasma NO; THP 3.5x10^-6 g/kg) was 28.4 ± 4.3 µmol/L. The “NO (µmol/L) release, Ischemic” value (plasma NO; THP 3.5x10^-7 g/kg) was 6.6 ± 0.6 µmol/L, the “NO (µmol/L) release, Reperfused” value (plasma NO; THP 3.5x10^-7 g/kg) was 8.0 ± 1.7 µmol/L and the “NO (µmol/L) release, Non-ischemic” value (plasma NO; [5]) was 7.6 ± 0.9 µmol/L. The “%VF” value ([4]; 3 µM) was 25* %, the “VF (number of hearts)” value ([4]; 3 µM, N 8) was 2 and the “%VF” value ([4]; 10 µM) was 0* %. For the same compound, the “VF (number of hearts)” value ([4]; 10 µM, N 6) was 0.
